{"source": "patent US20240108740A1", "about": "“THERAPEUTIC COMPOSITIONS INCLUDING SPN10 AND USES THEREOF” (Stealth BioTherapeutics Inc., priority 2022, published 2024)", "key": {"CD-1 mice": {"tested_on": "CD-1 mice", "experiment": "Example 7: streptozotocin (STZ)-induced diabetes, renal damage", "type": "in vivo, mouse", "details": "STZ-treated mice", "experimental": "Streptozotocin (STZ) will be used to induce diabetes in mice. […] groups of CD-1 mice will be studied: Group I—no STZ treatment; Group II—STZ (50 mg/kg, i.p.) will be given once daily for 5 days; Group III—STZ (50 mg/kg, i.p.) will be given once daily for 5 days, +peptide conjugates (3 mg/kg, i.p.) will be given once daily for 16 days; Group IV—STZ (50 mg/kg, i.p.) will be given once daily for 5 days, +aromatic-cationic peptides (an equivalent molar dose of aromatic-cationic peptide based on the concentration of the aromatic-cationic peptide administered in the peptide conjugate treatment group) will be given once daily for 16 days; Group V—STZ (50 mg/kg, i.p.) will be given once daily for 5 days, +SPN10 (an equivalent molar dose of SPN10 based on the concentration of SPN10 administered in the peptide conjugate treatment group) will be given once daily for 16 days; Group VI—STZ (50 mg/kg, i.p.) will be given once daily for 5 days, +SPN10(s) in combination with aromatic-cationic peptides (e.g., an equivalent molar dose of SPN10 based on the concentration of SPN10 administered in the peptide conjugate treatment group and an equivalent molar dose of aromatic-cationic peptide based on the concentration of aromatic-cationic peptide administered in the peptide conjugate treatment group) will be given once daily for 16 days. It is anticipated that STZ treatment will result in a progressive increase in blood glucose. Animals will be sacrificed after 3 weeks and kidney tissues preserved for histopathology. Kidney sections will be examined by Periodic Schiff (PAS) staining for renal tubular brush border.\nIt is anticipated that STZ treatment will induce significant apoptosis in tubular epithelial cells. Kidney sections will be examined for apoptosis using a TUNEL assay as described herein. It is anticipated that kidney sections from mice treated with STZ will show a large number of apoptotic nuclei in the proximal tubules, compared to non-STZ treated controls."}, "[1]": {"tested_on": "Caco-2 cells (human intestinal epithelial cells)", "type": "in vitro ADME", "experimental": "The cellular uptake of [^3H] SPN10(s) (with or without aromatic-cationic peptides) or [^3H] peptide conjugates will be studied using Caco-2 cells (human intestinal epithelial cells), and confirmed using SH-SY5Y (human neuroblastoma), HEK293 (human embryonic kidney) and CRFK (kidney epithelial) cells. Monolayers of cells will be cultured in 12-well plates (5×10^5 cells/well) coated with collagen for 3 days. On day 4, the cells will be washed twice with pre-warmed HBSS, and incubated with 0.2 mL of HBSS containing 250 nM [^3H] peptide conjugates; [^3H] aromatic-cationic peptides (an equivalent molar dose of aromatic-cationic peptide based on the concentration of the aromatic-cationic peptide administered in the peptide conjugate treatment group); [^3H] SPN10(s) (an equivalent molar dose of SPN10 based on the concentration of SPN10 administered in the peptide conjugate treatment group); or SPN10(s) in combination with aromatic-cationic peptides (e.g., an equivalent molar dose of SPN10 based on the concentration of SPN10 administered in the peptide conjugate treatment group and an equivalent molar dose of aromatic-cationic peptide based on the concentration of aromatic-cationic peptide administered in the peptide conjugate treatment group) at 37° C. or 4° C. for various times up to 1 hour. […] The cell lysates will then be transferred to scintillation vials and radioactivity will be counted. To distinguish between internalized radioactivity and surface-associated radioactivity, an acid-wash step will be included. […] Excitation will be performed at 340 nm by means of a UV laser, and emission will be measured at 520 nm. […]"}}, "note": "Residues, ends and D or L forms follow the SMILES beside them."}
{"smiles": "N=C(N)NCCC[C@H](NC(=O)[C@@H](N)Cc1c[nH]c2ccccc12)C(=O)N[C@@H](Cc1c[nH]c2ccccc12)C(=O)N[C@@H](CCCCN)C(N)=O", "note": "[SPN10, H-L-Trp-L-Arg-L-Trp-L-Lys-NH2] (H-WRWK-NH2)", "values": [{"measurement": "apoptotic cells in the proximal tubule (TUNEL)", "setting": "CD-1 mice", "value": "dramatically reduce apoptotic cells"}, {"measurement": "tubular epithelial nuclei", "setting": "CD-1 mice", "value": "appear normal"}, {"measurement": "loss of brush border in proximal tubules (PAS)", "setting": "CD-1 mice; daily treatment", "value": "prevent the loss of brush border"}, {"measurement": "rate of uptake at 4° C. compared to 37° C.", "setting": "[1]", "value": "slower"}, {"measurement": "saturation of uptake by 45 minutes", "setting": "[1]", "value": 76.5, "unit": "%"}, {"measurement": "saturation of uptake by 1 hour", "setting": "[1]", "value": 86.3, "unit": "%"}]}
